Measured values reported in patent US20180250328A1, “Metallocene-boronic acid-containing compounds and copolymers as antimicrobial agents” (University of South Carolina, priority 2017, published 2018).

Assays:
[1] = system: six strains of bacteria (S. aureus, E. faecalis, E. coli, P. vulgaris, P. aeruginosa and K. pneumoniae); assay: LIVE/DEAD bacteria viability assay by CSLM; assay type: cell-based; details: 18-hour incubation at 37° C.; penicillin-G 5, PCo-PPB 11 μg, PCo-PPB-Peni 16 μg per 1 mL
Method: One (1) mL of active bacterial stock of various strains was introduced to 5 penicillin-G, 11 μg cobaltocenium-boronic acid-containing copolymer, and 16 μg penicillin-loaded cobaltocenium-boronic acid-containing copolymers (penicillin-G weight: 5 m), respectively. An untreated cell suspension was used as the control. Following 18-hour incubation at 37° C., 1 μL LIVE/DEAD BacLight (Bacterial Viability Kit; INVITROGEN INC.®) was added to the incubation solution. After incubation for 15 minutes, cells were imaged using a LEICA TCS SP5® Laser Scanning Confocal Microscope with a 63X oil immersion lens.

S. aureus = assay: disk-diffusion assay of penicillin-loaded polymers; assay type: cell-based; details: Staphylococcus aureus
Method: FIG. 8B is a 3-D plot of inhibition zones of penicillin, penicillin loaded cobaltocenium-containing polymers (PCo-Peni), and penicillin loaded cobaltocenium-boronic acid-containing copolymers (PCo-PPB-Peni) against six strains of bacteria using different amounts of penicillin (A: 5 μg penicillin-G alone, B: PCo-Peni with 5 μg penicillin-G, C: PCo-PPB-Peni with 5 μg penicillin-G, D: 10 μg penicillin-G, E: PCo-Peni with 10 μg penicillin-G, F: PCo-PPB-Peni with 10 μg penicillin-G).
For the bacteria, a single colony was inoculated in 30 mL tryptic soy broth (TSB) at 37° C. for 24 hours, shaking at 190 rpm/min. All bacteria were grown to an optical density of about 1.00 (OD600=1.00) for further use. To conduct the agar disk-diffusion assays, actively-growing cultures of each bacterial strain on mannitol salt agar (MSA) were inoculated on tryptic soy broth (TSB) agar plates. The bacterial growth culture (cell concentrations were 1.0×10^6 CFU/mL) was diluted from 10 μL to 1 mL in tryptic soy broth (TSB) and 100 μL was spread on TSB agar plates to form a bacterial lawn covering the plate surface. Then, 6 mm (diameter) filter discs were added to the plate surface, aqueous cobaltocenium-boronic acid-containing copolymers (PCo-PPB) at different concentrations were added to disks, and the plates were incubated at 28° C. for 18 h. […]

How did the “killing of bacteria (LIVE/DEAD BacLight)” value [1] turn out when `CC1(C)S[C@@H]2[C@H](NC(=O)Cc3ccccc3)C(=O)N2[C@H]1C(=O)O` [penicillin-G] was run?
The value was “not effective at killing bacteria”.

What about the zone of inhibition at 5 µg/disc (S. aureus; 5 μg penicillin-G) of the same compound?
The zone of inhibition at 5 µg/disc was 7 mm.

What about the zone of inhibition at 10 µg/disc (S. aureus; 10 μg penicillin-G) of the same compound?
The zone of inhibition at 10 µg/disc was 14.5 mm.
